In patent publication US4742045A, “Glycopeptide antibiotics” (SmithKline Beckman Corporation, priority 1986, dated 1988):
Values after ≈ are worked out from the molar mass of the structure shown.

How the values were obtained:
Staphylococcus aureus = assay: standard microtiter assay, minimum inhibitory concentration; assay type: cell-based; details: for MIC: Table 5 organism 1 S. aureus
Source text: (§1) Representative results of standard microtiter assays are reported in Tables 1, 2 and 3 which follow, as the minimum inhibitory concentration of antibiotic (μg/ml).
(§2) In Table 1, test organisms 1-13 were different strains of Staphylococcus aureus, and 14-16 were different strains of Staphylococcus epidermidis. In Table 2, test organisms 1-5 were different strains of S. aureus; 6, 8, 12 and 14 were different strains of S. epidermidis; 7 was a Staphylococcus haemolyticus; 9 and 10 were different strains of Streptococcus faecalis; 11 was a Streptococcus pyogenes; and 13 was a Staphylococcus saprophyticus. In Table 3, test organisms 1-3 were different strains of S. aureus; 4 and 6 were different strains of S. epidermidis; 5 was a S. haemolyticus and 7 and 8 were different strains of Streptococcus faecalis. Except where individual components are indicated, the CWI-785 antibiotic employed was the CWI-785 complex; in some cases, HCl salts of the CWI-785 antibiotic were employed.
(§3) The number of strains tested is shown in parentheses below each organism. The average MIC is reported in μg/ml.
(§4) In Table 5 are shown data from standard microtiter assays carried out in a presence of no serum, 50% human serum (hum.) and 50% mouse serum (mse.). The test organisms were 1: S. aureus; 2,4 and 5: different strains of S. epidermidis; 3: S. haemolyticus; 6: S. saprophyticus; 7 and 8: different strains of S. faecalis.

Streptococcus faecalis = assay: as above; assay type: cell-based
Source text: as §1, §2, §3, §4

[1] = system: Staphylococcus epidermidis; assay: as above; assay type: cell-based
Source text: as §1, §2, §4

[2] = system: Staphylococcus haemolyticus; assay: as above; assay type: cell-based; details: for MIC: Table 5 organism 3 S. haemolyticus
Source text: as §1, §2, §4

[3] = system: Staphylococcus saprophyticus; assay: as above; assay type: cell-based; details: for MIC: Table 5 organism 6 S. saprophyticus
Source text: as §1, §2, §4

Streptococcus pyogenes = assay: as above; assay type: cell-based; details: Table 2 test organism 11, Streptococcus pyogenes
Source text: as §1, §2

Coag-neg. Staphylococci = assay: MIC against an expanded panel; assay type: cell-based; details: Table 4, Coag-neg. Staphylococci (24 strains)
Source text: as §3

Group A Strep. = assay: MIC against an expanded panel; assay type: cell-based; details: Table 4, Group A Strep. (6 strains)
Source text: as §3

Group B Strep. = assay: MIC against an expanded panel; assay type: cell-based; details: Table 4, Group B Strep. (4 strains)
Source text: as §3

JK Diptheroids = assay: MIC against an expanded panel; assay type: cell-based; details: Table 4, JK Diptheroids (19 strains)
Source text: as §3

Viridans = assay: MIC against an expanded panel; assay type: cell-based; details: Table 4, Viridans (2 strains)
Source text: as §3

S. aureus = assay: mice infected intraperitoneally, dosed 1 hr after infection, ED50; assay type: in vivo; details: for ED50: antibiotic i.v. 1 hr post infection
Procedure: (§5) The in vivo activity of the CWI-785 complex and its components and hydrolysis products was confirmed by administering selected CWI-785 antibiotics to mice infected with various gram-positive pathogens. In one representative assay, in which mice infected intraperitoneally with 46.8 LD50 's of S. aureus (strain 1, Tables 1 and 2) were dosed once, subcutaneously one hour after infection, the following ED50 's (mg/kg) were observed: CWI-785B: 2.4, CWI-785C: 3.1, CWI-785: 3.8, HPB3: 0.9, vancomycin: 0.7. In a second representative assay carried out as above except that mice were infected with 3.17 LD50 's of S. faecalis (strain 9, Table 2), the following ED50 's were observed: HPB3 hydrochloride: 1.6, HPB4 hydrochloride: 1.6, vancomycin: 2.2, teicoplanin: 1.3.
(§6) In Table 6, below, is shown the ED50 in mg/kg of HPB4 in comparison to vancomycin and teicoplanin. Mice were injected i.p. with the indicated organism and then i.v., 1 hr post infection, with the indicated antibiotic.

S. faecalis = assay: as above; assay type: in vivo
Procedure: as §5, §6

S. epidermidis = assay: mice infected i.p., antibiotic i.v. 1 hr post infection, ED50; assay type: in vivo; details: S. epidermidis 2479 (>1000 × LD50) i.p., antibiotic i.v. 1 hr post infection
Procedure: as §6

S. haemolyticus = assay: as above; assay type: in vivo; details: S. haemolyticus 651 (8 × LD50) i.p., antibiotic i.v. 1 hr post infection
Procedure: as §6

[4] = predicted human half-life; details: in comparison to vancomycin
gram-positive organisms = assay: in vitro antibacterial activity (stated in words); assay type: cell-based; details: in vitro data
Source text: Unless specifically indicated, as used herein, CWI-785B, HPB4 and HPB3 will mean a mixture of epimers. Analogous ' and " epimers of other components of the CWI-785 complex also exist and are included within the scope of the invention.

[5] = assay type: physicochemical
Source text: The invention includes within its scope pharmaceutical compositions containing at least one of the above-mentioned antibiotic compounds and a pharmaceutically acceptable carrier. The compositions may also contain other active antibacterial agents. The compositions may be made up in any pharmaceutical form appropriate for the route of administration in question. Such compositions are exemplified by solid compositions for oral administration, such as tablets, capsules, pills, powders and granules; liquid compositions for oral administration such as solutions, suspensions, syrups and elixirs; preparations for parenteral administration such as sterile solutions, suspensions or emulsions; and preparations for topical administration such as gels, creams, ointments or salves. […] In 40% prophylene glycol in water (V/V), the solubility of HPB4 free base is greater than about 200 mg/ml. […] The solubility of HPB4.K is about 300 mg/ml. The solubility of HPB4.2HCl is about 600 mg/ml.
(§7) The solubility of the potassium salt is about 300 mg/ml in water.

pH of aqueous solution = assay type: physicochemical; details: 100 mg/ml aqueous solution
Procedure: as §7

[6] = Table 4, S. aureus (30 strains)
[7] = Table 4, Strep. faecalis (12 strains)

With `CNC(C(=O)NC1C(=O)NC(CCSC)C(=O)NC2C(=O)NC3C(=O)NC(C(=O)NC(C(=O)O)c4cc(O)cc(O)c4-c4cc3ccc4O)C(O[C@H]3C[C@@H](N)[C@@H](O)[C@H](C)O3)c3ccc(c(Cl)c3)Oc3cc2cc(c3O)Oc2ccc(cc2)C1O)c1ccc(O)cc1` (stereo partly drawn) [HPB4] the minimum inhibitory concentration (Staphylococcus aureus; Table 2 test organism 1, S. aureus strain) was 1.6 µg/mL (≈ 1.24 µM), the minimum inhibitory concentration (Staphylococcus aureus; Table 2 test organism 2, S. aureus strain) was 0.8 µg/mL (≈ 0.619 µM) and the minimum inhibitory concentration (Staphylococcus aureus; Table 2 test organism 3, S. aureus strain) was 0.8 µg/mL (≈ 0.619 µM). The minimum inhibitory concentration (Staphylococcus aureus; Table 2 test organism 4, S. aureus strain) was 0.8 µg/mL (≈ 0.619 µM), the minimum inhibitory concentration (Staphylococcus aureus; Table 2 test organism 5, S. aureus strain) was 0.8 µg/mL (≈ 0.619 µM) and the MIC50 (Staphylococcus aureus; [6]) was 0.8 µg/mL (≈ 0.619 µM). The “MIC RANGE” value (Staphylococcus aureus; [6]) was 0.2 to 0.8 µg/mL, the MIC (Staphylococcus aureus; 50% Hum. Serum) was 1.6 µg/mL (≈ 1.24 µM) and the MIC (Staphylococcus aureus; 50% Mse. Serum) was 1.6 µg/mL (≈ 1.24 µM). It also gave an MIC (Staphylococcus aureus; No Serum) of 1.6 µg/mL (≈ 1.24 µM), a minimum inhibitory concentration (Streptococcus faecalis; Table 2 test organism 9, Streptococcus faecalis strain) of 0.8 µg/mL (≈ 0.619 µM) and a minimum inhibitory concentration (Streptococcus faecalis; Table 2 test organism 10, Streptococcus faecalis strain) of 0.8 µg/mL (≈ 0.619 µM). The MIC50 (Streptococcus faecalis; [7]) was 0.4 µg/mL (≈ 0.31 µM), the “MIC RANGE” value (Streptococcus faecalis; [7]) was 0.2 to 0.8 µg/mL and the MBC50 (Streptococcus faecalis; Table 4, Strep. faecalis MBC50) was 12.5 µg/mL (≈ 9.68 µM). For the same compound, the “MBC RANGE” value (Streptococcus faecalis; Table 4, Strep. faecalis MBC50 column) was 3.1 to 25 µg/mL, the MIC (Streptococcus faecalis; Table 5 organism 7 S. faecalis, 50% Hum. Serum) was 3.1 µg/mL (≈ 2.4 µM) and the MIC (Streptococcus faecalis; Table 5 organism 7 S. faecalis, 50% Mse. Serum) was 3.1 µg/mL (≈ 2.4 µM). The MIC (Streptococcus faecalis; Table 5 organism 7 S. faecalis, No Serum) was 0.4 µg/mL (≈ 0.31 µM), the MIC (Streptococcus faecalis; Table 5 organism 8 S. faecalis, 50% Hum. Serum) was 3.1 µg/mL (≈ 2.4 µM) and the MIC (Streptococcus faecalis; Table 5 organism 8 S. faecalis, 50% Mse. Serum) was 3.1 µg/mL (≈ 2.4 µM). The MIC (Streptococcus faecalis; Table 5 organism 8 S. faecalis, No Serum) was 0.4 µg/mL (≈ 0.31 µM), the minimum inhibitory concentration ([1]; Table 2 test organism 6, S. epidermidis strain) was 1.6 µg/mL (≈ 1.24 µM) and the minimum inhibitory concentration ([1]; Table 2 test organism 8, S. epidermidis strain) was 3.1 µg/mL (≈ 2.4 µM). For the same compound, the minimum inhibitory concentration ([1]; Table 2 test organism 12, S. epidermidis strain) was 1.6 µg/mL (≈ 1.24 µM), the minimum inhibitory concentration ([1]; Table 2 test organism 14, S. epidermidis strain) was 0.8 µg/mL (≈ 0.619 µM) and the MIC ([1]; Table 5 organism 2 S. epidermidis, 50% Hum. Serum) was 3.1 µg/mL (≈ 2.4 µM). For the same compound, the MIC ([1]; Table 5 organism 2 S. epidermidis, 50% Mse. Serum) was 3.1 µg/mL (≈ 2.4 µM), the MIC ([1]; Table 5 organism 2 S. epidermidis, No Serum) was 1.6 µg/mL (≈ 1.24 µM) and the MIC ([1]; Table 5 organism 4 S. epidermidis, 50% Hum. Serum) was 3.1 µg/mL (≈ 2.4 µM). The MIC ([1]; Table 5 organism 4 S. epidermidis, 50% Mse. Serum) was 3.1 µg/mL (≈ 2.4 µM), the MIC ([1]; Table 5 organism 4 S. epidermidis, No Serum) was 3.1 µg/mL (≈ 2.4 µM) and the MIC ([1]; Table 5 organism 5 S. epidermidis, 50% Hum. Serum) was 3.1 µg/mL (≈ 2.4 µM). The MIC ([1]; Table 5 organism 5 S. epidermidis, 50% Mse. Serum) was 1.6 µg/mL (≈ 1.24 µM), the MIC ([1]; Table 5 organism 5 S. epidermidis, No Serum) was 0.8 µg/mL (≈ 0.619 µM) and the minimum inhibitory concentration ([2]; Table 2 test organism 7, Staphylococcus haemolyticus) was 1.6 µg/mL (≈ 1.24 µM). The MIC ([2]; 50% Hum. Serum) was 6.3 µg/mL (≈ 4.88 µM), the MIC ([2]; 50% Mse. Serum) was 6.3 µg/mL (≈ 4.88 µM) and the MIC ([2]; No Serum) was 1.6 µg/mL (≈ 1.24 µM). The minimum inhibitory concentration ([3]; Table 2 test organism 13, Staphylococcus saprophyticus) was 1.6 µg/mL (≈ 1.24 µM), the MIC ([3]; 50% Hum. Serum) was 6.3 µg/mL (≈ 4.88 µM) and the MIC ([3]; 50% Mse. Serum) was 0.2 µg/mL (≈ 0.155 µM). It also gave an MIC ([3]; No Serum) of 0.8 µg/mL (≈ 0.619 µM), a minimum inhibitory concentration (Streptococcus pyogenes) of 0.2 µg/mL (≈ 0.155 µM) and an MIC50 (Coag-neg. Staphylococci) of 1.6 µg/mL (≈ 1.24 µM). The “MIC RANGE” value (Coag-neg. Staphylococci) was 0.4 to 3.1 µg/mL, the MIC50 (Group A Strep.) was 0.4 µg/mL (≈ 0.31 µM) and the “MIC RANGE” value (Group A Strep.) was 0.05 to 0.8 µg/mL. For the same compound, the “MIC RANGE” value (Group B Strep.) was 0.1 to 0.8 µg/mL, the MIC50 (JK Diptheroids) was 0.4 µg/mL (≈ 0.31 µM) and the “MIC RANGE” value (JK Diptheroids) was 0.4 to 0.8 µg/mL. The “MIC RANGE” value (Viridans) was 0.025 to 0.8 µg/mL, the ED50 (S. aureus; S. aureus 2620 (24 × LD50) i.p.) was 1.6 mg/kg and the ED50 (S. aureus; S. aureus HH 127 (35 × LD50) i.p.) was 1.8 mg/kg. The “in vivo effectiveness relative to HPB4"” value (S. aureus; against S. aureus 127) was “fourfold more effective”, the ED50 (S. faecalis; S. faecalis 34358 (9 × LD50) i.p., antibiotic i.v. 1 hr post infection) was 1.0 mg/kg and the “in vivo effectiveness relative to HPB4"” value (S. faecalis; against S. faecalis 34358) was “fourfold more effective”. For the same compound, the ED50 (S. epidermidis) was 2.0 mg/kg, the ED50 (S. haemolyticus) was 20 mg/kg and the “human half-life (predicted)” value [4] was “at least 12 hours”. For the same compound, the “in vitro activity relative to the corresponding B" isomer” value (gram-positive organisms) was “more active”.
In the case of `CNC(C(=O)NC1C(=O)NC(CCSC)C(=O)NC2C(=O)NC3C(=O)NC(C(=O)NC(C(=O)[O-])c4cc(O)cc(O)c4-c4cc3ccc4O)C(OC3CC(N)C(O)C(C)O3)c3ccc(c(Cl)c3)Oc3cc2cc(c3O)Oc2ccc(cc2)C1O)c1ccc(O)cc1.[K+]` (stereo not drawn) [HPB4.K], the solubility [5] is reported as “about 300 mg/ml” and the “pH of aqueous solution” value (pH of aqueous solution) is reported as 9.29.
